Experimental data as given in publication PMC6089664 (Clinical pharmacology and therapeutics, 2017).
Where two headings read alike, the source gives them in different places.

How the values were obtained:
25-gene IFN score = experiment: Correlation of AUC24,SS with whole blood 25-gene IFN score; type: in vivo, human; conditions: subset (5) of CANDLE patients
[1] = cited from earlier work
[2] = Population pharmacokinetic; type: in vivo, human; conditions: for AUC24,SS/Dose: AUC24,SS/total daily dose
serum IP-10 = experiment: Correlation of AUC24,SS with serum CXCL10/IP-10 levels; type: in vivo, human; conditions: 189 observations in 18 patients, linear mixed model, p-value for slope 0.0002
[3] = 18 patients, 54 patient-years of exposure
[4] = popPK final model, 18 patients, oral

With `CCS(=O)(=O)N1CC(CC#N)(n2cc(-c3ncnc4[nH]ccc34)cn2)C1` [baricitinib, Baricitinib] the “AUC24,SS at which CANDLE patients normalized their IFN scores” value (25-gene IFN score) was 1500 to 2000 nM·h, the “patients who developed BK viremia” value [3] was 44% and the “patients with Herpes Zoster” value [3] was 1 patient. For the same compound, the “deaths during the program” value (mean exposure 35.4 months) was “No deaths”, the “most frequently reported TEAEs” value (over 54 patient-years) was “Upper respiratory tract infection” and the half-life ([1]; RA population) was 12.5 h. For the same compound, the half-life ([1]; healthy adult subjects) was 10 h, the “effect of renal impairment on Cmax” value ([1]; moderate and severe renal impairment, ref data on file, Eli Lilly and Company) was “minimal effect” and the half-life ([1]; psoriasis patients) was 12.8 h. For the same compound, the “projected initial exposure (AUC24,SS) with proposed starting dose” value (“projected initial exposure (AUC24,SS)” for short) ([2]; 20–40kg, eGFR ≥120 mL/min/1.73 m^2, initial dose 6 mg/day BID) was 1077 to 2688 nM·h, the “projected initial exposure (AUC24,SS)” value ([2]; <20kg, eGFR ≥120 mL/min/1.73 m^2, initial dose 6 mg/day TID) was 1769 to 2112 nM·h and the “projected initial exposure (AUC24,SS)” value ([2]; >40kg, eGFR ≥120 mL/min/1.73 m^2, initial dose 8 mg/day BID) was 1082 to 1958 nM·h. The “Covariate effect of GFR on Clearance, parameter for GFR-CL (%SEE)” value ([2]; CL/Ftypical=9.74×(eGFR/146.82)^0.444) was 0.444 (24.8%), the “Covariate effect of Weight on V/F, parameter for WTV-V (%SEE)” value ([2]; V/Ftypical = 67.1 × e^0.0192·(WTV−27.2)) was 0.0192 (15.0%) and the “geometric mean AUC24,SS at clinically effective doses” value ([2]; all patients, final PK assessments) was ~ 2388 nM*h. For the same compound, the “dose proportionality of PK” value ([2]; dosing range of 1–14 mg daily) was “dose linearity”, the “AUC24,SS/Dose” value ([2]; eGFR ≥120 ml/min/1.73 m^2, 20–40kg (n=5), geometric mean (%CV)) was 292 nM·h/mg and the “AUC24,SS/Dose” value ([2]; eGFR ≥120 ml/min/1.73 m^2, <20kg (n=2), geometric mean (%CV)) was 322 nM·h/mg. The “AUC24,SS/Dose” value ([2]; eGFR ≥120 ml/min/1.73 m^2, >40kg (n=5), geometric mean (%CV)) was 193 nM·h/mg, the AUC ([2]; human, plasma, oral, 6 mg/day, AUC24,SS, eGFR <120 ml/min/1.73 m^2, <20kg (n=2), final PK visit, geometric mean (%CV)) was 3.08 µM·h and the CL/F ([2]; human, plasma, oral, 6.9 mg/day) was 5.33 mL/min/kg. For the same compound, the half-life ([2]; human, plasma, oral, 6.9 mg/day, t1/2, eGFR ≥120 ml/min/1.73 m^2, 20–40kg (n=5), final PK visit, geometric mean (%CV)) was 5 h, the CL/F ([2]; human, plasma, oral, 8 mg/day) was 9.33 mL/min/kg and the AUC ([2]; human, plasma, oral, 8 mg/day, AUC24,SS, eGFR ≥120 ml/min/1.73 m^2, <20kg (n=2), final PK visit, geometric mean (%CV)) was 2.58 µM·h. For the same compound, the Cmax ([2]; human, plasma, oral, 8 mg/day, eGFR ≥120 ml/min/1.73 m^2, <20kg (n=2), final PK visit, geometric mean (%CV)) was 171 nM, the half-life ([2]; human, plasma, oral, 8 mg/day, t1/2, eGFR ≥120 ml/min/1.73 m^2, <20kg (n=2), final PK visit, geometric mean (%CV)) was 4.4 h and the half-life ([2]; human, plasma, oral, 10 mg/day, t1/2, eGFR ≥120 ml/min/1.73 m^2, >40kg (n=5), final PK visit, geometric mean (%CV)) was 7 h. The AUC ([2]; human, plasma, oral, AUC24,SS, eGFR <120 ml/min/1.73 m^2, >40kg (n=3), final PK visit, geometric mean (%CV)) was 2.53 µM·h, the AUC ([2]; human, plasma, oral, AUC24,SS, eGFR ≥120 ml/min/1.73 m^2, 20–40kg (n=5), final PK visit, geometric mean (%CV)) was 2.02 µM·h and the AUC ([2]; human, plasma, oral, AUC24,SS, eGFR ≥120 ml/min/1.73 m^2, >40kg (n=5), final PK visit, geometric mean (%CV)) was 1.94 µM·h. For the same compound, the Cmax ([2]; human, plasma, oral, eGFR <120 ml/min/1.73 m^2, <20kg (n=2), final PK visit, geometric mean (%CV)) was 229 nM, the Cmax ([2]; human, plasma, oral, eGFR <120 ml/min/1.73 m^2, >40kg (n=3), final PK visit, geometric mean (%CV)) was 180 nM and the Cmax ([2]; human, plasma, oral, eGFR ≥120 ml/min/1.73 m^2, 20–40kg (n=5), final PK visit, geometric mean (%CV)) was 150 nM. It also gave a Cmax ([2]; human, plasma, oral, eGFR ≥120 ml/min/1.73 m^2, >40kg (n=5), final PK visit, geometric mean (%CV)) of 136 nM, a half-life ([2]; human, plasma, oral, estimated half-life, patient O3, >40 kg, eGFR 54–76 mL/min/1.73 m^2) of 17 to 19.2 h and an AUC ([2]; human, plasma, oral, geometric mean AUC24,SS at clinically effective doses, all patients, final PK assessments) of 2.39 µM·h. It also gave a half-life ([2]; human, plasma, oral, t1/2, eGFR <120 ml/min/1.73 m^2, <20kg (n=2), final PK visit, geometric mean (%CV)) of 4.8 h, a half-life ([2]; human, plasma, oral, t1/2, eGFR <120 ml/min/1.73 m^2, >40kg (n=3), final PK visit, geometric mean (%CV)) of 7.8 h and a Vd/F ([2]; human, plasma, po) of 67.1 L. The “Absorption duration D1, population estimate (%SEE)” value [2, 4] was 0.971 (14.8%) hr, the “Apparent Clearance CL/F, population estimate (%SEE)” value [2, 4] was 9.74 (9.57%) L/hr and the “slope of correlation of AUC24,SS with serum IP-10 levels” value (serum IP-10) was −0.197.
